ChEMBL document CHEMBL3886918, “Pyrimidine compounds useful in the treatment of diseases mediated by IKKE and/or TBK1 mechanisms” (2016)

Target: T1, Serine/threonine-protein kinase TBK1 (Homo sapiens, UniProt Q9UHD2)
T1 sequence (Q9UHD2 whole entry): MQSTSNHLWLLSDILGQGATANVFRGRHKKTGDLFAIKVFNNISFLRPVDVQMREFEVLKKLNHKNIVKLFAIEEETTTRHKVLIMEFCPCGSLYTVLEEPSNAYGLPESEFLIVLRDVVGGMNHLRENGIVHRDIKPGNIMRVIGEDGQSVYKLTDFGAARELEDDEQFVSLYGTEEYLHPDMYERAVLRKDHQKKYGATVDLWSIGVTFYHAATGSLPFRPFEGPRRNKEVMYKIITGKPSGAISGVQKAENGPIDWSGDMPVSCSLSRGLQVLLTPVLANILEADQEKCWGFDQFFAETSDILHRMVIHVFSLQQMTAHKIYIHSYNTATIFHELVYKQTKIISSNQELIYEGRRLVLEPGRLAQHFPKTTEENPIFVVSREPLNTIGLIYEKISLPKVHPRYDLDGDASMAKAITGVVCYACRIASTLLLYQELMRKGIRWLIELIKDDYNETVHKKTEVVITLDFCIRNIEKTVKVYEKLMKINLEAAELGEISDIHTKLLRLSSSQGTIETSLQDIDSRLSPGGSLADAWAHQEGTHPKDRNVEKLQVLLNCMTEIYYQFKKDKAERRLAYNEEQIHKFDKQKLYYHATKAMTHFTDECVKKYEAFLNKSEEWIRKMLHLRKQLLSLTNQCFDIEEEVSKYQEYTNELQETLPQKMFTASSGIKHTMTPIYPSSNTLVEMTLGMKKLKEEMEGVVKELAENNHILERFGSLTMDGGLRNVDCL
Experiment: Time-Resolved Fluorescence-based Lanthascreen Assay: Kinase inhibition assays (10 μL) were performed at 20° C. in 384-well plate format. Compound IC50 values were determined at the apparent Km for ATP (20 μM) based on a radiometric assay (Invitrogen) using 8 or 10 point curves in duplicate. The final reaction conditions contained 400 nM fluorescein-IkBα substrate ([…]), 20 μM ATP, 2 nM or 8 nM IKKε or TBK1 kinase respectively, and 3% DMSO in kinase assay buffer consisting of 50 mM HEPES (pH 7.5), 10 mM MgCl, 1 mM EGTA, 0.01% Brij-35.Compound dilutions were prepared from 10 mM DMSO stocks by dilution into DMSO. Compound dilution series were further diluted in kinase assay buffer to give a 12% DMSO stock, the final concentration in the assay being 3% DMSO.The kinase phosphorylation assay was initiated by the addition of the kinase and the reaction was allowed to proceed for 1 h or 2.5 h for IKKε and TBK-1 kinase respectively.

Row | IC50 [nM] | SMILES
1 | < 30 | N#Cc1cc(-c2ccnc(Nc3ccc(CN4C(=O)OCC4CO)nc3)n2)cnc1N1CC[C@H](F)C1 (stereo not given in full)
2 | < 30 | N#Cc1cc(-c2nc(Nc3ccnc(NC(=O)CN4CCOCC4)c3)ncc2F)cnc1N1CC[C@H](F)C1
3 | < 1000 | CC(=O)NC1CCN(c2ncc(-c3ccnc(Nc4ccc(CN5CCOCC5)nc4)n3)cc2C#N)C1 (stereo not given)
4 | < 30 | N#Cc1cc(-c2ccnc(Nc3ccc(N)nc3)n2)cnc1N1CC[C@H](F)C1
5 | < 30 | N#Cc1cc(-c2ccnc(Nc3cccc(C(=O)N4CCNCC4)c3)n2)cnc1N1CC[C@H](F)C1
